Values joined by “and” are separate entries in the source; they are usually repeats but may differ in a detail not shown here. Identical values can stand only once. Counter-ions that a name gives are not always drawn.
What was measured:
[1] = tested on: E. coli; settings: IC50-values, established assay; cited from earlier work
[2] = tested on: 11 different microbial strains; settings: for Inhibitory concentrations by method: MARA MTCmin: MTC value of the strain showing the highest sensitivity; for Inhibitory concentrations by method: MARA MTCmean: mean MTC for the 11 microbial strains; for Toxic fingerprint: MTC value, Mean: mean of all 11 MTC values
Protocol: (§1) • dispense 150 μl of growth medium with indicator in each well • add a concentration gradient of the chemical to be tested to rows B-H in a MARA plate (i.e. an indicator device according to the present invention) • incubate for 16 h • read absorbance values; and • analyse with software.
(§2) Microbial responses to different chemicals was estimated by kinetic measurements of their growth using the Labsystem automated IEMS reader. A computer software that could monitor incubation temperatures, reading intervals, and automatically transfer OD data to a computer was developed. A growth medium containing 0.05% peptone, 0.011% bromothymol blue (BTB), 1% sodium chloride and 0.3% glucose was added to all wells. The glucose acts as a carbon source, and during growth the microorganism will break down the glucose and produce acids, that will turn the initially blue indicator to yellow. Each microplate contains 12 columns and 8 rows, and thus in each plate, 11 lyophilized microbial strains were used (one for each column, the 12th column was used as negative control). […] In order to avoid drying out of the plates during the incubation, one drop of sterile mineral oil was added to each well. The plate was then incubated in the IEMS spectrophotometer and the absorbance value from each well was measured every second hour during 48 h.
(§3) The overall toxicity of the chemical compound can be described either as the mean of all 11 MTC values (shown in column 12), or as the minimum value for all 11 microbial strains used in the assay (marked with bold in the table).
Concentrations are given in mg/ml.

[3] = tested on: ObanF; settings: Microbial Toxic Concentration; incubation time 16 h
Protocol: as §1, §2, §3

[4] = tested on: Saccaromyces ceriviciae (bakers yeast); settings: Microbial Toxic Concentration; incubation time 16 h
Protocol: as §1, §2, §3

[5] = tested on: JG2 (strain of marine origin); settings: Microbial Toxic Concentration; incubation time 16 h
Protocol: as §1, §2, §3

[6] = tested on: JG4 (strain of marine origin); settings: Microbial Toxic Concentration; incubation time 16 h
Protocol: as §1, §2, §3

[7] = tested on: JG1 (strain of marine origin); settings: Microbial Toxic Concentration; incubation time 16 h
Protocol: as §1, §2, §3

[8] = tested on: Aeromonas hydriphila HG3 (RV 5.1); settings: Microbial Toxic Concentration; incubation time 16 h
Protocol: as §1, §2, §3

[9] = tested on: JG3 (strain of marine origin); experiment: MARA indicator device toxic fingerprint, microorganism no. 3; settings: Microbial Toxic Concentration; incubation time 16 h
Protocol: as §1, §2, §3

[10] = tested on: Photobacterium phosphoreum; settings: IC50-values, established assay; cited from earlier work
[11] = tested on: Daphnia; settings: IC50-values, established assay; cited from earlier work
[12] = tested on: Staphylococcus epidermidis (Karin12); experiment: MARA indicator device toxic fingerprint, microorganism no. 11; settings: Microbial Toxic Concentration; incubation time 16 h
Protocol: as §1, §2, §3

[13] = tested on: β-proteobacterium A22 (Kalmar 200); experiment: MARA indicator device toxic fingerprint, microorganism no. 5; settings: Microbial Toxic Concentration; incubation time 16 h
Protocol: as §1, §2, §3

[14] = tested on: E. coli MZ 480; experiment: MARA indicator device toxic fingerprint, microorganism no. 8; settings: Microbial Toxic Concentration; incubation time 16 h
Protocol: as §1, §2, §3

[15] = tested on: microorganism no. 7; experiment: MARA indicator device toxic fingerprint, microorganism no. 7; settings: Microbial Toxic Concentration; incubation time 16 h
Protocol: as §1, §2, §3

| Compound | Inhibitory concentrations by method: E. coli [1] [mg/mL] | Inhibitory concentrations by method: MARA MTCmin [2] [mg/mL] | Inhibitory concentrations by method: MARA MTCmean [2] [mg/mL] | Toxic fingerprint: MTC value, Mean [2] | Toxic fingerprint: MTC value for microorganism no. 9 [3] | Toxic fingerprint: MTC value for microorganism no. 10 [4] | Toxic fingerprint: MTC value for microorganism no. 2 [5] | Toxic fingerprint: MTC value for microorganism no. 4 [6] | Toxic fingerprint: MTC value for microorganism no. 1 [7] | Toxic fingerprint: MTC value for microorganism no. 6 [8] | Toxic fingerprint: MTC value for microorganism no. 3 [9] | Inhibitory concentrations by method: Microtox [10] [mg/mL] | Inhibitory concentrations by method: Daphnia [11] [mg/mL] | Toxic fingerprint: MTC value for microorganism no. 11 [12] | Toxic fingerprint: MTC value for microorganism no. 5 [13] | Toxic fingerprint: MTC value for microorganism no. 8 [14] | Toxic fingerprint: MTC value for microorganism no. 7 [15] |
| --- | --- | --- | --- | --- | --- | --- | --- | --- | --- | --- | --- | --- | --- | --- | --- | --- | --- |
| O=S(=O)([O-])[O-].[Li+].[Li+] [Lithium Sulphate] | 67.764 | 3.11 | 11.330 | 9.960 and 12.700 | 23.400 and 17.500 | 2.650 and 3.570 | 6.300 and 7.170 | 4.590 and 7.950 | 3.700 and 4.780 | 10.600 and 8.490 | 12.200 and 12.700 | 25.763 | 0.033 | 22.400 and 15.300 | 14.500 and 10.000 | 41.800 and 25.400 | – |
| Oc1c(Cl)c(Cl)c(Cl)c(Cl)c1Cl [Penta Chloro Phenol] | 0.010 | 0.001 | 0.005 | 0.004 and 0.005 | 0.004 and 0.003 | – | 0.001 | 0.009 and 0.010 | 0.006 and 0.004 | 0.003 and 0.006 | – | 0.001 | 0.001 | 0.001 | 0.007 and 0.004 | 0.005 and 0.006 | 0.005 and 0.007 |
| [F-].[Na+] [Sodium Fluoride] | 10.547 | 4.890 | 8.050 | 6.930 and 9.170 | 22.700 and 20.100 | 5.650 and 4.130 | 2.660 and 2.930 | 6.040 and 6.560 | 3.290 and 2.220 | – | – | 9.843 | 0.636 | – | 9.500 and 15.000 | 11.400 and 14.600 | 6.450 and 7.890 |
| Kinidin sulphate | 1.009 | 0.087 | 0.148 | 0.150 and 0.145 | 0.254 and 0.329 | 0.091 and 0.072 | 0.053 and 0.076 | 0.243 and 0.233 | 0.108 and 0.102 | 0.099 and 0.141 | 0.113 and 0.104 | 0.092 | 0.062 | 0.088 and 0.085 | – | – | 0.138 and 0.275 |
| COc1ccc(CCN(C)CCCC(C#N)(c2ccc(OC)c(OC)c2)C(C)C)cc1OC (centres unmarked) [Verapamil HCl] | 0.834 | 0.360 | 0.811 | 0.811 | 0.510 | 0.877 | 0.247 | 3.100 | 0.326 | 1.090 | 0.128 | 0.438 | 0.055 | 0.371 | 0.591 | 0.360 | 2.950 |
